In ChEMBL document CHEMBL1142531, “Discovery and biological profile of 4-(1-aryltriazol-4-yl)-tetrahydropyridines as an orally active new class of metabotropic glutamate receptor 1 antagonist” (Bioorg Med Chem, 2008):
≈ marks a conversion by molar mass, not a printed value. Calls of active or inactive are those of the source. The calls are words filed in the database; no cut-off is given here.

Assays:
[1] = target: Metabotropic glutamate receptor 1 (Homo sapiens, UniProt Q13255); experiment: Antagonist activity at human mGluR1 expressed in CHO cells assessed as calcium flux by FLIPR assay; type: functional, cell-based
[2] = target: Metabotropic glutamate receptor 1 (Mus musculus, UniProt P97772); experiment: Antagonist activity at mouse mGluR1 expressed in CHO cells assessed as calcium flux by FLIPR assay; type: functional, cell-based
[3] = target: Metabotropic glutamate receptor 5 (Homo sapiens, UniProt P41594); experiment: Antagonist activity at human mGluR5 expressed in CHO cells assessed as calcium flux by FLIPR assay; type: functional, cell-based
[4] = Octanol-water partition coefficient, log D at pH 7.4 by shake flask method; type: physicochemical
[5] = system: Mus musculus; experiment: Inhibition of (S)-3,5-[…]-induced face washing behavior in mouse administered 30 mins before (S)-3,5-DHPG measured after 5 mins; type: functional, organism-based
[6] = Plasma concentration in mouse at 10 mg/kg, po after 30 mins; type: ADME, organism-based; set-up: dose 10 mg/kg, route oral
[7] = Metabolic stability in human liver microsomes at 1 uM after 30 mins; type: ADME, Microsome; details: read-out: Stability
[8] = Metabolic stability in rat liver microsomes at 1 uM after 30 mins; type: ADME, Microsome; details: read-out: Stability
[9] = system: Mus musculus; experiment: Inhibition of (S)-3,5-[…]-induced face washing behavior in mouse at 10 to 30 mg/kg, ip administered 30 mins before (S)-3,5-DHPG measured after 5 mins; type: functional, organism-based
[10] = system: Mus musculus; experiment: Inhibition of (S)-3,5-[…]-induced face washing behavior in mouse at 10 to 30 mg/kg, po administered 30 mins before (S)-3,5-DHPG measured after 5 mins; type: functional, organism-based
[11] = target: Metabotropic glutamate receptor 6 (Homo sapiens) (UniProt O15303); experiment: Activity at human mGluR6 expressed in CHO cells at 10 uM by [35S]GTPgammaS binding assay; type: functional, cell-based
[12] = Total plasma clearance in rat at 1 mg/kg, iv; type: ADME, organism-based; set-up: dose 1 mg/kg, route intravenous
[13] = Oral bioavailability in rat at 3 mg/kg; type: ADME, organism-based; details: in vivo
[14] = Inhibition of NMDA receptor
[15] = Half life in rat at 1 mg/kg, iv; type: ADME, organism-based; set-up: dose 1 mg/kg, route intravenous; details: in vivo
[16] = system: Mus musculus; experiment: Brain concentration in mouse at 10 mg/kg, po after 30 mins; type: ADME, organism-based; set-up: dose 10 mg/kg, route oral; details: in vivo, 0.5 h
[17] = Solubility in water by ultra performance liquid chromatography; type: physicochemical
[18] = Metabolic stability in mouse liver microsomes at 1 uM after 30 mins; type: ADME, Microsome; details: read-out: Stability
[19] = target: Metabotropic glutamate receptor 7 (Homo sapiens) (UniProt Q14831); experiment: Activity at human mGluR7 expressed in CHO cells at 10 uM by [35S]GTPgammaS binding assay; type: functional, cell-based
[20] = Inhibition of AMPA receptor
[21] = Inhibition of kainate receptor
[22] = target: Metabotropic glutamate receptor 8 (Homo sapiens) (UniProt O00222); experiment: Activity at human mGluR8 expressed in CHO-K1 cells at 10 uM by [35S]GTPgammaS binding assay; type: functional, cell-based
[23] = target: Metabotropic glutamate receptor 2 (Homo sapiens) (UniProt Q14416); experiment: Activity at human mGluR2 expressed in CHO cells at 10 uM by [35S]GTPgammaS binding assay; type: functional, cell-based
[24] = target: Metabotropic glutamate receptor 4 (Homo sapiens) (UniProt Q14833); experiment: Activity at human mGluR4 expressed in CHO cells at 10 uM by [35S]GTPgammaS binding assay; type: functional, cell-based
[25] = system: Mus musculus; experiment: Inhibition of (S)-3,5-[…]-induced face washing behavior in mouse at 3 to 10 mg/kg, ip administered 30 mins before (S)-3,5-DHPG measured after 5 mins; type: functional, organism-based

Chain of Metabotropic glutamate receptor 1 (Mus musculus, UniProt P97772) (P97772 whole entry): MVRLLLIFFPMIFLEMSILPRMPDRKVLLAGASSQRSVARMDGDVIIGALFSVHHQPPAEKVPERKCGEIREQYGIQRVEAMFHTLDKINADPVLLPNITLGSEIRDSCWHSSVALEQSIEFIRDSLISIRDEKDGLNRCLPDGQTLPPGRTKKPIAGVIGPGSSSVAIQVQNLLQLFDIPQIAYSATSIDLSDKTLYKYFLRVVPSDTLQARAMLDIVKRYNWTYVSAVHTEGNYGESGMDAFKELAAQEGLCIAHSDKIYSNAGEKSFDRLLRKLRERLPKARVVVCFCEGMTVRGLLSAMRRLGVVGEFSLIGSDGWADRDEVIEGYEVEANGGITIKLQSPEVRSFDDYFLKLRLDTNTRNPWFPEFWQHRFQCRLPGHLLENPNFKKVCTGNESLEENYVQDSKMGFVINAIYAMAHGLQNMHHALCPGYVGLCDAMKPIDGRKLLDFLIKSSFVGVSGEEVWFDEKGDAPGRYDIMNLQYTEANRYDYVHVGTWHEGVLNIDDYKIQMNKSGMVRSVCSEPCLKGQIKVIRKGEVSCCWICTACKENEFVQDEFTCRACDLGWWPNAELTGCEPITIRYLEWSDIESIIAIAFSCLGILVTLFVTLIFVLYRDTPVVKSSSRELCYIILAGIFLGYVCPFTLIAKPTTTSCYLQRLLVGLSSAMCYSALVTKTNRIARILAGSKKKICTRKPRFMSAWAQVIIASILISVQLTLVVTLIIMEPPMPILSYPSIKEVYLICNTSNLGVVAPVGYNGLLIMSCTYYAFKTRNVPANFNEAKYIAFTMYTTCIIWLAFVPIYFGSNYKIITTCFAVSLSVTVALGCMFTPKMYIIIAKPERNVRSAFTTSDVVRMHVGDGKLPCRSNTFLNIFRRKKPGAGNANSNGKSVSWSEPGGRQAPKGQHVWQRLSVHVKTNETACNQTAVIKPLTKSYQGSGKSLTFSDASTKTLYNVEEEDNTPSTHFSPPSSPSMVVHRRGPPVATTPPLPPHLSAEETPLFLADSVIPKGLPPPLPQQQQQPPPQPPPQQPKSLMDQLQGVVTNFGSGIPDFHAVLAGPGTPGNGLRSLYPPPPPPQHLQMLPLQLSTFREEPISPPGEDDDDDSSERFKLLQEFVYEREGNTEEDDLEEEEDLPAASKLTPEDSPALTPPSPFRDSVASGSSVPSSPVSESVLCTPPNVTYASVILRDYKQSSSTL
Chain of Metabotropic glutamate receptor 1 (Homo sapiens, UniProt Q13255) (Q13255 whole entry): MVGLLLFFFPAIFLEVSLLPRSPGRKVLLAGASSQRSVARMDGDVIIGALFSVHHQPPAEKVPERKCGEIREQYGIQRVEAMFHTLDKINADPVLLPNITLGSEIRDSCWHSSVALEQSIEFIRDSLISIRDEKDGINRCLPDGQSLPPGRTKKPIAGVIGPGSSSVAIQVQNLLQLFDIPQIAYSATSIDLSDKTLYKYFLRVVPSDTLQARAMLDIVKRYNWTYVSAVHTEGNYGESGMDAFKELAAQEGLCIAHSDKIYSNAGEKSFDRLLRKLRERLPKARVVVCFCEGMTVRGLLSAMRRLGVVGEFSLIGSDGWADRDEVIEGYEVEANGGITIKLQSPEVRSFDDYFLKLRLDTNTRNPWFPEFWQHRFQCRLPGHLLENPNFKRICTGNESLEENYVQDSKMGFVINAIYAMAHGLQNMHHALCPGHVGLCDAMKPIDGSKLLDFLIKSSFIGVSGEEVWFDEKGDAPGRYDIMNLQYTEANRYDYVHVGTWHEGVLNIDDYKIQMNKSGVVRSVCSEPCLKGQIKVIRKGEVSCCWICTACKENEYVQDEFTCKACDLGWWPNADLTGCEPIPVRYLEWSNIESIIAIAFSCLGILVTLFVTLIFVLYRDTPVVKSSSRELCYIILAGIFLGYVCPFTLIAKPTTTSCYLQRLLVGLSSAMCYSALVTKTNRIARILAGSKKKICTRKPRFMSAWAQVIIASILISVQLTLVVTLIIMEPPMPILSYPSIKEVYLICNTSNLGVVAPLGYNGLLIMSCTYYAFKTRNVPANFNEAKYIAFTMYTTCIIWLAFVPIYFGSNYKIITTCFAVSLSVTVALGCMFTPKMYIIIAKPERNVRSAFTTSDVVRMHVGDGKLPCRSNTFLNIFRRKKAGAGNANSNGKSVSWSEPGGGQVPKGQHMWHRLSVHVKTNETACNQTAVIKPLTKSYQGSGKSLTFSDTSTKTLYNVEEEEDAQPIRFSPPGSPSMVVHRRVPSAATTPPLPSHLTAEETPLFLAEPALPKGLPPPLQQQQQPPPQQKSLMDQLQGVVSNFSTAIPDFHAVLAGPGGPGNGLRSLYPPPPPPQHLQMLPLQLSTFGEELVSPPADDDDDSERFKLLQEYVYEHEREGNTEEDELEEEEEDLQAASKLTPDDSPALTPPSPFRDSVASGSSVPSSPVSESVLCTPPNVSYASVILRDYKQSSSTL
Chain of Metabotropic glutamate receptor 5 (P41594 whole entry): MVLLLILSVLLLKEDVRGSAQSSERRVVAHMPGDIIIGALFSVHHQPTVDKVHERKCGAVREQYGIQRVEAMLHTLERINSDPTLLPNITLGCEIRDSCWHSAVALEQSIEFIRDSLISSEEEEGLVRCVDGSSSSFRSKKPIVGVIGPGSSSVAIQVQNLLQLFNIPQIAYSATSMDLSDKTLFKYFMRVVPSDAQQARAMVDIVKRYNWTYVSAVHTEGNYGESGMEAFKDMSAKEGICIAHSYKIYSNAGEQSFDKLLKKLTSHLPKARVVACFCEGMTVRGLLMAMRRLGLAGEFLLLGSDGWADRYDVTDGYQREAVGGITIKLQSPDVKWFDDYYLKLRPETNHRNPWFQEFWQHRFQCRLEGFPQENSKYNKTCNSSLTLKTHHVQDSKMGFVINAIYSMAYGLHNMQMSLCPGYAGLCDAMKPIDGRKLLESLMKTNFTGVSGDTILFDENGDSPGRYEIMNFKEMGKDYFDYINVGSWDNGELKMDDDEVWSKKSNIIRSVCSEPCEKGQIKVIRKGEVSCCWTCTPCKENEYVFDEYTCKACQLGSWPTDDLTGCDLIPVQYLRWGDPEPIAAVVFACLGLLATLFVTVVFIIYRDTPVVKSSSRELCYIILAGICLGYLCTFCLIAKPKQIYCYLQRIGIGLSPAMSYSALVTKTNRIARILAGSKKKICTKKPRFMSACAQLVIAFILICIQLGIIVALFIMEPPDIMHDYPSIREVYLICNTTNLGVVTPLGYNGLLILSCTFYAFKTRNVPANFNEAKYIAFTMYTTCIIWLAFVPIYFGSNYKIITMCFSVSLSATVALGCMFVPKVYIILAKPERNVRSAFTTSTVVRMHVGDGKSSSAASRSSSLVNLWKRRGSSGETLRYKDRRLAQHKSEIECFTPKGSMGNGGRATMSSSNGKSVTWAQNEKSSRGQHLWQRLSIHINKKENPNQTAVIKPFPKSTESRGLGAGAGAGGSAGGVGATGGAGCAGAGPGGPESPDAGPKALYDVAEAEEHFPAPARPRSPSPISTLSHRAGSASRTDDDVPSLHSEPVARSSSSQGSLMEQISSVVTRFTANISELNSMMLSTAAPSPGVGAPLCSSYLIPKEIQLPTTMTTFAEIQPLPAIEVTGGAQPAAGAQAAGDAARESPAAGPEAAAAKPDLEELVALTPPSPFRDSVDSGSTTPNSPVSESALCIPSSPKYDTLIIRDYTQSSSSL
Chain of Metabotropic glutamate receptor 4 (Homo sapiens) (Q14833 whole entry): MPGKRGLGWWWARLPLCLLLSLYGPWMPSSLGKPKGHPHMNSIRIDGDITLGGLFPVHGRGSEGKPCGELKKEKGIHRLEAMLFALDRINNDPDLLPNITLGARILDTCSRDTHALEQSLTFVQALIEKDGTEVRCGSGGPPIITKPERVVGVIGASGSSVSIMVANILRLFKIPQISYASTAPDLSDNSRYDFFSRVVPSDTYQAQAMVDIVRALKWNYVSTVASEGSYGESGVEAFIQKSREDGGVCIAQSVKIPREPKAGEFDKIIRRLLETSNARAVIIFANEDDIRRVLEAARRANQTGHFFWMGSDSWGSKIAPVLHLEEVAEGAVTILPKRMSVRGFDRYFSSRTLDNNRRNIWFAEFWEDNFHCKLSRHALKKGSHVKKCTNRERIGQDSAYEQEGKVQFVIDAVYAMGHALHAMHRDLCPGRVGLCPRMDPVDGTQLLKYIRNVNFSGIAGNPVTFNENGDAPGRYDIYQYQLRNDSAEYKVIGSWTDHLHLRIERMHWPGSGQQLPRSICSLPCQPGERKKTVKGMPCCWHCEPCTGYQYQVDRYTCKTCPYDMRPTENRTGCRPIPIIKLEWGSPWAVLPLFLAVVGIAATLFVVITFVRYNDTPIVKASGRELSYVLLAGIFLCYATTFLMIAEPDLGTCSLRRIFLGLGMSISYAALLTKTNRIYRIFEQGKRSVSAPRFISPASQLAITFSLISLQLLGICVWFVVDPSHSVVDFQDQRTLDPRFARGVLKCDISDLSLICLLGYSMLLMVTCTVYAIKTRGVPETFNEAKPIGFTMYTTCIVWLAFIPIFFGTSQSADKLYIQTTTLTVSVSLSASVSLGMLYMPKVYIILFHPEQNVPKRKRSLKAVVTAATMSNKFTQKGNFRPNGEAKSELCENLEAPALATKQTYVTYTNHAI

| IC50 [1] [nM] | IC50 [2] [nM] | IC50 [3] [nM] | logD [4] | SMILES | further results |
| --- | --- | --- | --- | --- | --- |
| 220 | 1000 | > 10000 | – | CC(C)(C)OC(=O)N1CC=C(c2cn(-c3ccncc3)nn2)CC1 | – |
| 55 | 180 | 8300 | 3 | CC(C)(C)OC(=O)N1CC=C(c2cn(-c3cccnc3)nn2)CC1 | – |
| – | 3.1 | 6200 | 2.1 | Cc1c(C2=CCN(C(=O)N(C)C(C)C)CC2)nnn1-c1cccnc1F | concentration at 0.5 h [6]: 210 nM; remaining at 0.5 h, 1 µM [7]: 85%; remaining at 0.5 h, 1 µM [8]: 61%; Activity [9]: Active; Activity [10]: Active; Activity [11]: inactive; clearance [12]: 57 mL/min/kg; bioavailability [13]: 18%; IC50 [14]: > 10000 nM; half-life [15]: 12 min; Drug uptake [16]: 0.17 nmol/g; solubility [17]: > 170 µM; remaining at 0.5 h, 1 µM [18]: 27%; Activity [19]: inactive; IC50 [20]: > 10000 nM; IC50 [21]: > 10000 nM; Activity [22]: inactive; Activity [23]: inactive; Activity [24]: inactive |
| 2.6 | 12 | 4300 | 3.1 | CC(C)(C)OC(=O)N1CC=C(c2cn(-c3cccnc3F)nn2)CC1 | – |
| 7 | 1.5 | 170 | 2.9 | Cc1c(C2=CCN(C(=O)OC(C)(C)C)CC2)nnn1-c1cccnc1F | remaining at 0.5 h, 1 µM [7]: 90%; remaining at 0.5 h, 1 µM [8]: 70%; solubility [17]: 155 µM (≈ 55.7 µg/mL); remaining at 0.5 h, 1 µM [18]: 2%; Activity [25]: Active |
| 120 | 160 | > 10000 | – | CC(C)(C)CC(=O)N1CC=C(c2cn(-c3ccccc3F)nn2)CC1 | – |
| 9.8 | 24 | 820 | > 4 | CC(C)(C)OC(=O)N1CC=C(c2cn(-c3ccccc3)nn2)CC1 | remaining at 0.5 h, 1 µM [7]: 57%; remaining at 0.5 h, 1 µM [8]: 16%; solubility [17]: 2.4 µM (≈ 0.783 µg/mL) |
| 6.3 | 16 | 1000 | > 4 | CC(C)(C)OC(=O)N1CC=C(c2cn(-c3ccccc3F)nn2)CC1 | – |

Further lines, the compound ahead of its results:

| SMILES | IC50 [1] [nM] | IC50 [2] [nM] | IC50 [3] [nM] | logD [4] | further results |
| --- | --- | --- | --- | --- | --- |
| COc1ccccc1-n1cc(C2=CCN(C(=O)OC(C)(C)C)CC2)nn1 | 590 | 1600 | 4000 | – | – |
| CC(C)(C)OC(=O)N1CC=C(c2cn(-c3ccc(F)cc3)nn2)CC1 | 16 | 31 | 1100 | > 4 | – |
| CC(C)(C)OC(=O)N1CC=C(c2cn(-c3ccccn3)nn2)CC1 | 49 | 150 | 8700 | > 4 | – |
| NC1(C(=O)O)CCc2cc(C(=O)O)ccc21 (racemic) | – | – | – | – | Activity [5]: Active |
| CC(C)OC(=O)N1CC=C(c2cn(-c3cccnc3F)nn2)CC1 | 39 | 180 | 3900 | 2.8 | – |
| N[C@H](C(=O)O)c1ccc(C(=O)O)cc1 | – | – | – | – | Activity [5]: Active |
| CC(C)(C)OC(=O)N1CC=C(c2cn(-c3cccc(F)c3)nn2)CC1 | 18 | 39 | 1100 | > 4 | – |
| Cc1ccccc1-n1cc(C2=CCN(C(=O)OC(C)(C)C)CC2)nn1 | 11 | 58 | 880 | > 4 | – |
| CC(C)(C)NC(=O)N1CC=C(c2cn(-c3ccccc3F)nn2)CC1 | 57 | 290 | 8600 | 3.2 | – |
| Cc1c(C2=CCN(C(=O)OC(C)C)CC2)nnn1-c1cccnc1F | 7.2 | 3.3 | 40 | 2.8 | – |
